Reference: the NIST ThermoML archive (doi:10.1021/je8009336)
± gives the expanded uncertainty stated by the source.

What was measured:
[1] = xn = mol fraction of the nth substance listed; conditions: 313.15 K, 101 kPa, Liquid; for speed of sound: Vibrating Tube Densimeter; for mass density: Vibrating tube method
[2] = refractive index (Na D-line) (dimensionless); xn = mol fraction of the nth substance listed; conditions: 313.15 K, 101 kPa, Liquid, Standard Abbe refractometry

C1CCCC1 [cyclopentane] + Cc1ccccc1
speed of sound ([1]; x1 = 0.0418): 1235.6 ± 2.1 m/s | speed of sound ([1]; x1 = 0.0924): 1228.7 ± 2.1 m/s | speed of sound ([1]; x1 = 0.1907): 1215.8 ± 2.1 m/s | speed of sound ([1]; x1 = 0.2717): 1205.2 ± 2.1 m/s | speed of sound ([1]; x1 = 0.3579): 1194.8 ± 2.1 m/s | speed of sound ([1]; x1 = 0.4944): 1178.6 ± 2.1 m/s | speed of sound ([1]; x1 = 0.5862): 1168.4 ± 2.2 m/s | speed of sound ([1]; x1 = 0.6895): 1157.4 ± 2.2 m/s | speed of sound ([1]; x1 = 0.7951): 1147.3 ± 2.2 m/s | speed of sound ([1]; x1 = 0.8958): 1138.3 ± 2.3 m/s | speed of sound ([1]; x1 = 0.9456): 1134.2 ± 2.3 m/s | speed of sound ([1]; x1 = 1): 1130 ± 2.3 m/s | mass density ([1]; x1 = 0.0418): 843.6 ± 0.2 kg/m3 | mass density ([1]; x1 = 0.0924): 838 ± 0.2 kg/m3 | mass density ([1]; x1 = 0.1907): 826.8 ± 0.2 kg/m3 | mass density ([1]; x1 = 0.2717): 817.3 ± 0.3 kg/m3 | mass density ([1]; x1 = 0.3579): 807 ± 0.3 kg/m3 | mass density ([1]; x1 = 0.4944): 790.4 ± 0.3 kg/m3 | mass density ([1]; x1 = 0.5862): 778.9 ± 0.3 kg/m3 | mass density ([1]; x1 = 0.6895): 765.8 ± 0.3 kg/m3 | mass density ([1]; x1 = 0.7951): 752.2 ± 0.3 kg/m3 | mass density ([1]; x1 = 0.8958): 738.9 ± 0.3 kg/m3 | mass density ([1]; x1 = 0.9456): 732.3 ± 0.3 kg/m3 | mass density ([1]; x1 = 1): 725 ± 0.3 kg/m3 | refractive index ([2]; x1 = 0.0418): 1.48201 ± 0.00068 | refractive index ([2]; x1 = 0.0924): 1.47801 ± 0.00068 | refractive index ([2]; x1 = 0.1907): 1.46979 ± 0.00068 | refractive index ([2]; x1 = 0.2717): 1.46313 ± 0.00068 | refractive index ([2]; x1 = 0.3579): 1.45562 ± 0.00068 | refractive index ([2]; x1 = 0.4944): 1.44336 ± 0.00069 | refractive index ([2]; x1 = 0.5862): 1.43503 ± 0.00069 | refractive index ([2]; x1 = 0.6895): 1.42526 ± 0.00069 | refractive index ([2]; x1 = 0.7951): 1.41512 ± 0.0007 | refractive index ([2]; x1 = 0.8958): 1.40537 ± 0.0007 | refractive index ([2]; x1 = 0.9456): 1.40037 ± 0.0007 | refractive index ([2]; x1 = 1): 1.39456 ± 0.0007

C1CCCCC1 [cyclohexane] + Cc1ccccc1
speed of sound ([1]; x1 = 0.0377): 1236.8 ± 2.1 m/s | speed of sound ([1]; x1 = 0.0967): 1230 ± 2.1 m/s | speed of sound ([1]; x1 = 0.1945): 1220.1 ± 2.1 m/s | speed of sound ([1]; x1 = 0.2433): 1215.4 ± 2.1 m/s | speed of sound ([1]; x1 = 0.3985): 1202.3 ± 2.1 m/s | speed of sound ([1]; x1 = 0.5672): 1191.4 ± 2.1 m/s | speed of sound ([1]; x1 = 0.5965): 1189.8 ± 2.1 m/s | speed of sound ([1]; x1 = 0.7019): 1185.1 ± 2.1 m/s | speed of sound ([1]; x1 = 0.7958): 1182.2 ± 2.1 m/s | speed of sound ([1]; x1 = 0.9011): 1181.2 ± 2.1 m/s | speed of sound ([1]; x1 = 0.95): 1180.9 ± 2.1 m/s | speed of sound ([1]; x1 = 1): 1181.7 ± 2.1 m/s | mass density ([1]; x1 = 0.0377): 844.4 ± 0.2 kg/m3 | mass density ([1]; x1 = 0.0967): 838.2 ± 0.2 kg/m3 | mass density ([1]; x1 = 0.1945): 828.5 ± 0.2 kg/m3 | mass density ([1]; x1 = 0.2433): 823.4 ± 0.2 kg/m3 | mass density ([1]; x1 = 0.3985): 808.6 ± 0.2 kg/m3 | mass density ([1]; x1 = 0.5672): 793.4 ± 0.2 kg/m3 | mass density ([1]; x1 = 0.5965): 790.9 ± 0.2 kg/m3 | mass density ([1]; x1 = 0.7019): 781.9 ± 0.2 kg/m3 | mass density ([1]; x1 = 0.7958): 774.4 ± 0.2 kg/m3 | mass density ([1]; x1 = 0.9011): 766.5 ± 0.2 kg/m3 | mass density ([1]; x1 = 0.95): 763 ± 0.2 kg/m3 | mass density ([1]; x1 = 1): 759.6 ± 0.2 kg/m3 | refractive index ([2]; x1 = 0.0377): 1.48212 ± 0.00068 | refractive index ([2]; x1 = 0.0967): 1.47761 ± 0.00068 | refractive index ([2]; x1 = 0.1945): 1.47007 ± 0.00068 | refractive index ([2]; x1 = 0.2433): 1.46621 ± 0.00068 | refractive index ([2]; x1 = 0.3985): 1.45475 ± 0.00068 | refractive index ([2]; x1 = 0.5672): 1.44276 ± 0.00068 | refractive index ([2]; x1 = 0.5965): 1.44073 ± 0.00068 | refractive index ([2]; x1 = 0.7019): 1.43356 ± 0.00068 | refractive index ([2]; x1 = 0.7958): 1.4276 ± 0.00068 | refractive index ([2]; x1 = 0.9011): 1.42097 ± 0.00068 | refractive index ([2]; x1 = 0.95): 1.41807 ± 0.00068 | refractive index ([2]; x1 = 1): 1.41513 ± 0.00068

Cc1ccccc1 [toluene] + CC1CCCCC1
speed of sound ([1]; x2 = 0): 1240.9 ± 2.1 m/s | mass density ([1]; x2 = 0): 848.2 ± 0.2 kg/m3 | refractive index ([2]; x2 = 0): 1.48509 ± 0.00068

CCc1ccccc1 [ethylbenzene] + CC1CCCCC1
speed of sound ([1]; x2 = 0): 1257.3 ± 2.1 m/s | mass density ([1]; x2 = 0): 849.3 ± 0.2 kg/m3 | refractive index ([2]; x2 = 0): 1.48538 ± 0.00068

CCc1ccccc1 [ethylbenzene] + C1CCCCC1
speed of sound ([1]; x2 = 0): 1257.3 ± 2.1 m/s | speed of sound ([1]; x2 = 0.0515): 1251.8 ± 2.1 m/s | speed of sound ([1]; x2 = 0.0976): 1247 ± 2.1 m/s | speed of sound ([1]; x2 = 0.2494): 1231.8 ± 2.1 m/s | speed of sound ([1]; x2 = 0.3647): 1221.3 ± 2.1 m/s | speed of sound ([1]; x2 = 0.3855): 1219.3 ± 2.1 m/s | speed of sound ([1]; x2 = 0.5028): 1209.4 ± 2.1 m/s | speed of sound ([1]; x2 = 0.6009): 1201.9 ± 2.1 m/s | speed of sound ([1]; x2 = 0.7005): 1195 ± 2.1 m/s | speed of sound ([1]; x2 = 0.7976): 1189.2 ± 2.1 m/s | speed of sound ([1]; x2 = 0.9017): 1184.5 ± 2.1 m/s | speed of sound ([1]; x2 = 0.9504): 1182.8 ± 2.1 m/s | mass density ([1]; x2 = 0): 849.3 ± 0.2 kg/m3 | mass density ([1]; x2 = 0.0515): 844.7 ± 0.2 kg/m3 | mass density ([1]; x2 = 0.0976): 840.5 ± 0.2 kg/m3 | mass density ([1]; x2 = 0.2494): 826.7 ± 0.2 kg/m3 | mass density ([1]; x2 = 0.3647): 816.2 ± 0.2 kg/m3 | mass density ([1]; x2 = 0.3855): 814.3 ± 0.2 kg/m3 | mass density ([1]; x2 = 0.5028): 803.6 ± 0.2 kg/m3 | mass density ([1]; x2 = 0.6009): 794.6 ± 0.2 kg/m3 | mass density ([1]; x2 = 0.7005): 785.6 ± 0.2 kg/m3 | mass density ([1]; x2 = 0.7976): 776.9 ± 0.2 kg/m3 | mass density ([1]; x2 = 0.9017): 768 ± 0.2 kg/m3 | mass density ([1]; x2 = 0.9504): 763.8 ± 0.2 kg/m3 | refractive index ([2]; x2 = 0): 1.48538 ± 0.00068 | refractive index ([2]; x2 = 0.0515): 1.4814 ± 0.00068 | refractive index ([2]; x2 = 0.0976): 1.47828 ± 0.00068 | refractive index ([2]; x2 = 0.2494): 1.46788 ± 0.00068 | refractive index ([2]; x2 = 0.3647): 1.45999 ± 0.00068 | refractive index ([2]; x2 = 0.3855): 1.45831 ± 0.00068 | refractive index ([2]; x2 = 0.5028): 1.45026 ± 0.00068 | refractive index ([2]; x2 = 0.6009): 1.44349 ± 0.00068 | refractive index ([2]; x2 = 0.7005): 1.43614 ± 0.00068 | refractive index ([2]; x2 = 0.7976): 1.42925 ± 0.00068 | refractive index ([2]; x2 = 0.9017): 1.42208 ± 0.00068 | refractive index ([2]; x2 = 0.9504): 1.41865 ± 0.00068

C1CCCC1 [cyclopentane] + c1ccccc1
speed of sound ([1]; x1 = 0.0366): 1224.4 ± 2.1 m/s | speed of sound ([1]; x1 = 0.0941): 1215.7 ± 2.1 m/s | speed of sound ([1]; x1 = 0.1945): 1200.6 ± 2.1 m/s | speed of sound ([1]; x1 = 0.2706): 1190.2 ± 2.1 m/s | speed of sound ([1]; x1 = 0.3937): 1175.5 ± 2.1 m/s | speed of sound ([1]; x1 = 0.4893): 1165 ± 2.1 m/s | speed of sound ([1]; x1 = 0.5917): 1155.3 ± 2.2 m/s | speed of sound ([1]; x1 = 0.6893): 1147.2 ± 2.2 m/s | speed of sound ([1]; x1 = 0.7983): 1139.7 ± 2.2 m/s | speed of sound ([1]; x1 = 0.8971): 1134.2 ± 2.3 m/s | speed of sound ([1]; x1 = 0.9471): 1132 ± 2.3 m/s | speed of sound ([1]; x1 = 1): 1130 ± 2.3 m/s | mass density ([1]; x1 = 0.0366): 852 ± 0.2 kg/m3 | mass density ([1]; x1 = 0.0941): 843.4 ± 0.2 kg/m3 | mass density ([1]; x1 = 0.1945): 828.6 ± 0.3 kg/m3 | mass density ([1]; x1 = 0.2706): 817.8 ± 0.3 kg/m3 | mass density ([1]; x1 = 0.3937): 800.7 ± 0.3 kg/m3 | mass density ([1]; x1 = 0.4893): 787.8 ± 0.3 kg/m3 | mass density ([1]; x1 = 0.5917): 774.4 ± 0.3 kg/m3 | mass density ([1]; x1 = 0.6893): 762.1 ± 0.3 kg/m3 | mass density ([1]; x1 = 0.7983): 748.6 ± 0.3 kg/m3 | mass density ([1]; x1 = 0.8971): 736.8 ± 0.3 kg/m3 | mass density ([1]; x1 = 0.9471): 731 ± 0.3 kg/m3 | mass density ([1]; x1 = 1): 725 ± 0.3 kg/m3 | refractive index ([2]; x1 = 0.0366): 1.48417 ± 0.00068 | refractive index ([2]; x1 = 0.0941): 1.47833 ± 0.00068 | refractive index ([2]; x1 = 0.1945): 1.46795 ± 0.00068 | refractive index ([2]; x1 = 0.2706): 1.46049 ± 0.00068 | refractive index ([2]; x1 = 0.3937): 1.44843 ± 0.00069 | refractive index ([2]; x1 = 0.4893): 1.43934 ± 0.00069 | refractive index ([2]; x1 = 0.5917): 1.42988 ± 0.00069 | refractive index ([2]; x1 = 0.6893): 1.4211 ± 0.00069 | refractive index ([2]; x1 = 0.7983): 1.41158 ± 0.0007 | refractive index ([2]; x1 = 0.8971): 1.40315 ± 0.0007 | refractive index ([2]; x1 = 0.9471): 1.39904 ± 0.0007 | refractive index ([2]; x1 = 1): 1.39456 ± 0.0007

Cc1ccccc1 [toluene] + C1CCCC1
speed of sound ([1]; x2 = 0): 1240.9 ± 2.1 m/s | mass density ([1]; x2 = 0): 848.2 ± 0.2 kg/m3 | refractive index ([2]; x2 = 0): 1.48509 ± 0.00068
